Numbers after ± are expanded uncertainties.
Assay: refractive index (Na D-line) (dimensionless)
Settings: 303.15 K; 101.33 kPa; Liquid; Standard Abbe refractometry

**Q.** Which refractive index does the source give for `CC(C)C(=O)O` [2-methylpropanoic acid] here?
**A.** 1.3893 ± 0.0009

**Q.** Which refractive index does the source give for `CC(C)CC(=O)O` [3-methylbutanoic acid] here?
**A.** 1.3997 ± 0.0009

**Q.** With `CC(=O)O` [acetic acid] as the compound, how does the refractive index read?
**A.** 1.3716 ± 0.0009

**Q.** With `CCCC(=O)O` [butanoic acid] as the compound, how does the refractive index read?
**A.** 1.3947 ± 0.0009

**Q.** With `CCCCC` [pentane] as the compound, how does the refractive index read?
**A.** 1.3523 ± 0.0009

**Q.** For `CCCCC(=O)O` [pentanoic acid], which refractive index is on record?
**A.** 1.4047 ± 0.0009

**Q.** Which refractive index does the source give for `CCC(=O)O` [propanoic acid] here?
**A.** 1.3829 ± 0.0009

**Q.** For `O=S1(=O)CCCC1` [sulfolane], which refractive index is on record?
**A.** 1.4823 ± 0.0009
